The record followed here is US20240391923A1, “METHIONINE ADENOSYLTRANSFERASE 2A INHIBITOR FOR TREATING MTAP DELETION-TYPE CANCER” (SUZHOU GENHOUSE BIO CO., LTD., priority 2022, published 2024).

Data set [1] has as its system HCT116-MTAP-knockout (−/−) cell strain. The experiment in a line: Tumor cell proliferation inhibition assay (CellTiter-Glo), HCT116-MTAP-knockout (-/-). As to conditions: Homo sapiens, 120 h, HCT116-MTAP-knockout (−/−) cells, 5-day treatment. The data set is classed as cell-based. The method, boiled down: (§1)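 Cells were seeded, left 24 h, then exposed to test compounds in a 10-point, 1:3 dilution series from 10 μM top concentration alongside a DMSO group. After 5 days at 37° C./5% CO2, growth inhibition was judged from ATP level by CellTiter-Glo luminescence.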
On the technique in general: In ATP-based viability assays light output follows the ATP content of the culture.

Data set [2] can be described thus: Pharmacokinetic test in mice (IV and PO). The data set is classed as in vivo. Conditions: BALB/c mice; for half-life: read-out: T½ (converted).
The test system of the next data set is Hut-78 cell strain. Briefly: Tumor cell proliferation inhibition assay (CellTiter-Glo), Hut-78. The data set is classed as cell-based. Conditions: Homo sapiens, HuT78, 120 h, Hut-78 cells, 5-day treatment. The method, boiled down:
as §1

Data set [3] concerns the target MAT2A recombinant protein (Homo sapiens, UniProt P31153). The experiment in a line: MAT2A inhibitory activity (malachite green colorimetric enzyme assay). The data set is classed as biochemical. The method in brief:
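Recombinant human MAT2A with L-methionine and ATP in 50 mM HEPES pH 7.5, 50 mM KCl, 10 mM MgCl2, 10 mM DTT, 60 min at room temperature. Phosphate released detected by malachite green reagent (15 min) at 630 nm. Ten-point 1:3 series from 1000 nM final; IC50 by variable-slope non-linear regression.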

For the next data set, the target named is T1, hERG potassium current (Homo sapiens, UniProt Q12809).
T1 construct: expressed in transfected cells; host or cells: HEK293, cultured under G418 selection
T1 sequence (Q12809 whole entry): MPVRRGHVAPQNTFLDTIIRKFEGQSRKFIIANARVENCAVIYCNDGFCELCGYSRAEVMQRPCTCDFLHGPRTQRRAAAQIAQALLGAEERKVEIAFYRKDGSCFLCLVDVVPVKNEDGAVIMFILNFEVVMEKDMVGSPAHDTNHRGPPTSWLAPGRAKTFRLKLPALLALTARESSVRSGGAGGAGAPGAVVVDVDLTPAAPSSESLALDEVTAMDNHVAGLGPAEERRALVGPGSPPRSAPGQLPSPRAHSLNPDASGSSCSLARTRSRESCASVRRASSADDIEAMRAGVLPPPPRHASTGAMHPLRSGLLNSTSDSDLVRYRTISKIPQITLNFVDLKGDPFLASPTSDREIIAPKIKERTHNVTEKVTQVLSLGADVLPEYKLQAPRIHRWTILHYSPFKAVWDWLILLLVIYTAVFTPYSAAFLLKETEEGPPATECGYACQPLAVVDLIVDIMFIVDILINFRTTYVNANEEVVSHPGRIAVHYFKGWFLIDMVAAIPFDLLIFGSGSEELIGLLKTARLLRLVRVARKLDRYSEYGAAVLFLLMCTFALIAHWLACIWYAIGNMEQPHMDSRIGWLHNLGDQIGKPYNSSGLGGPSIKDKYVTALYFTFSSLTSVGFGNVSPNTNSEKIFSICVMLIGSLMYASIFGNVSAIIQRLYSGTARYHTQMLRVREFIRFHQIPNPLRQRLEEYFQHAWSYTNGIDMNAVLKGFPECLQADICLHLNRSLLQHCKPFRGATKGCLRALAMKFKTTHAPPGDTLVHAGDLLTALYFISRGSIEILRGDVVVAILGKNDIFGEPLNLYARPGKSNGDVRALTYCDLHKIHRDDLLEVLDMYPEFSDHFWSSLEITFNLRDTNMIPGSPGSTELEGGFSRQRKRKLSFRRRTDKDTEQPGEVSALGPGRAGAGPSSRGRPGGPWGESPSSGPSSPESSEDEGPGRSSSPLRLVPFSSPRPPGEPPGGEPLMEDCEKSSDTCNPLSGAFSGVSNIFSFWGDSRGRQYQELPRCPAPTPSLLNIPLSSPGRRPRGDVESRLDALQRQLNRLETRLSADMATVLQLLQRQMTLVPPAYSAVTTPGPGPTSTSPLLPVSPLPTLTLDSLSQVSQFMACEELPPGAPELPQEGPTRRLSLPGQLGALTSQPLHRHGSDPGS
Briefly: hERG inhibition test (whole-cell patch clamp, Qpatch). The data set is classed as cell-based. Conditions: initial concentration 30 μM, 6 concentration points. The procedure:
The BEK293 cells were cultured in a DiVEM medium containing […] and 0.8 mg/mL G418 at 37° C. with 5% o CO2. The cells were digested by TrypLE™ Express and centrifuged. The cell density was adjusted to 2×10^6 cells/mL. The cells were gently mixed for 15-20 min using a shaker equilibrated at room temperature, and subjected to patch clamping on a machine. The medium of the prepared cells was replaced with extracellular fluid. The intracellular fluid and the extracellular fluid were taken from the fluid pool, and respectively added to the intracellular fluid pool and the cell and the test substance pool of the QPlate chip. The voltage stimulation of the whole-cell hERG potassium current was recorded by the whole-cell patch clamp, and the test data was collected and stored by Qpatch. The compound was diluted 3-fold at an initial concentration of 30 μM, and 6 concentration points were set, with each drug concentration being set for two administrations over a period of at least 5 min. The current detected in compound-free extracellular fluid for each cell was served as its own control group, and the detection was repeated at least twice independently using two cells per concentration. All electrophysiological experiments were performed at room temperature.
For data analysis, the current acted for each drug concentration and the current of the blank control were standardized
and then the inhibition rate corresponding to each drug concentration was calculated
The mean and standard error were calculated for each concentration, and the half maximal inhibitory concentration of each compound was calculated:
The dose-dependent effect was fitted non-linearly using the above equation, wherein Y represents the inhibition rate, C represents the concentration of the test substance, IC50 is the half maximal inhibitory concentration, and HillSlope represents the Hill coefficient. Curve fitting and calculation of IC50 were performed by Graphpad software.
In general terms: The hERG channel carries a current that helps repolarise heart muscle cells.

Data set [4] can be described thus: Saturation solubility of samples in FaSSIF solution. The data set is classed as physicochemical. As to conditions: FaSSIF pH 6.5, room temperature overnight. The procedure:
About 0.21 g of sodium hydroxide, about 2.24 g of sodium dihydrogen phosphate dihydrate, and 3.09 g of sodium chloride were weighed out and dissolved in 500 mL of water, and then the pH was adjusted to 6.5 with 1 N sodium hydroxide or 1 N hydrochloric acid. 112 mg of FaSSIF solid was weighed out and placed in a 50 mL volumetric flask, and the above buffer was added for dissolution, diluted to volume, mixed well, and left to stand at room temperature for 2 h or more.
• Test sample: about 1 mg of the test sample was taken, and 1 mL of FaSSIF solution was added. The mixture was stirred at room temperature overnight and centrifuged, and the supernatant was collected and injected for analysis. • Control substance solution: about 1.5 mg of the test sample was precisely weighed out and placed in a 50 mL volumetric flask, and DMF was added for dissolution, diluted to volume, and mixed well.
• Mobile phase A: 1000 mL of purified water was accurately weighed out, 1 mL of formic acid was added, and the mixture was mixed well and degassed with ultrasonic. • Mobile phase B: acetonitrile
The peak of the main component of the control substance and the peak of the test substance consistent with the retention time of the peak of the main component of the control substance were integrated, and the concentration thereof in the FaSSIF solution was calculated according to external standard method.

The test system of data set [5] is HCT116-MTAP wild-type (+/+)-cell strain. Briefly: Tumor cell proliferation inhibition assay (CellTiter-Glo), HCT116-MTAP wild-type (+/+). The data set is classed as cell-based. As to conditions: Homo sapiens, 120 h, HCT116-MTAP wild-type (+/+) cells, 5-day treatment. The method, boiled down: as §1

Like-named read-outs stand apart in the source and are kept apart here.

Chain of MAT2A recombinant protein (P31153 whole entry): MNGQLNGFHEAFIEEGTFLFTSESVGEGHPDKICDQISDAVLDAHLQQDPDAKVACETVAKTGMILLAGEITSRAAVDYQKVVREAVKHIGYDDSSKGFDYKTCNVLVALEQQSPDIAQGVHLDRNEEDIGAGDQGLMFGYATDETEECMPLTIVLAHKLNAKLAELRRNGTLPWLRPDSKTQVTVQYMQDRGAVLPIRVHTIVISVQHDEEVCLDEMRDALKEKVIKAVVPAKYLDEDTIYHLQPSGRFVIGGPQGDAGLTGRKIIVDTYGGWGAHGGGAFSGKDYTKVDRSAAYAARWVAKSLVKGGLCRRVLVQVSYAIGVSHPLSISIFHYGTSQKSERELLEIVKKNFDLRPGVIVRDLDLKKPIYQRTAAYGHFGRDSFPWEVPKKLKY

Usually AUC stands for concentration integrated over time. A higher AUC goes with more exposure. Regarding `Cn1cc2c(n1)c(=O)n(-c1cccc3[nH]ncc13)c1nc(C(F)(F)F)ccc21` [Compound B181], the IC50 is below 500 nM in data set [1] (IC50 score, read-out: Tumor cell 5-day relative growth inhibition (HCT116-MTAP−/−) (nM), score); 14.6 nM in data set [1] (IC50 value, read-out: Tumor cell 5-day relative growth inhibition (HCT116-MTAP−/−)); below 500 nM in the data set on Hut-78 cell strain (IC50 score, read-out: Tumor cell 5-day relative growth inhibition (Hut-78) (nM), score); 36.5 nM in the data set with Hut-78 cell strain (IC50 value, read-out: Tumor cell 5-day relative growth inhibition (Hut-78)); below 100 nM in data set [3] (IC50 score class, read-out: MAT2A Inhibition (score)); 14.7 nM in data set [3] (read-out: MAT2A Inhibition). Also, the IC50 on hERG potassium current is above 30 µM; in data set [5] (IC50 score, read-out: Tumor cell 5-day relative growth inhibition (HCT116-MTAP+/+) (nM), score) it was 500 to 2000 nM; in data set [5] (IC50 value, read-out: Tumor cell 5-day relative growth inhibition (HCT116-MTAP+/+)) it was 1340 nM. For the same molecule, the “AUC (in words)” value in data set [2] (summary of Table 7) was “relatively high”. Besides, the “half-life (T½) (in words)” value in data set [2] (summary of Table 7) is recorded as “relatively long”. Also, the AUC is 34.3 µM·h in data set [2] (mouse, plasma, IV 2 mg/kg) and 242 µM·h in data set [2] (mouse, plasma, PO 10 mg/kg). This molecule also had a clearance in data set [2] (mouse, plasma, IV 2 mg/kg) of 2.33 mL/min/kg. In data set [2] (mouse, plasma, IV 2 mg/kg, PO 10 mg/kg), the bioavailability was 131%. Also, the half-life was 438 min in data set [2] (mouse, plasma, IV 2 mg/kg) and 207 min in data set [2] (mouse, plasma, PO 10 mg/kg). Besides, in data set [2] (mouse, plasma, IV 2 mg/kg, read-out: Vz), the Vd is 1.4 L/kg. Also, in data set [4], the “FaSSIF (pH = 6.5) (μg/mL)” value worked out at 20.7 μg/mL.
